In the assay the target is GRB2 (growth factor receptor bound protein 2) (Homo sapiens, UniProt P62993). Briefly: biochemical.

The results in this text go back to paper doi:10.1101/2021.02.17.431525v1 (biorxiv, 2021).

Sequence of GRB2 (growth factor receptor bound protein 2) (P62993 whole entry): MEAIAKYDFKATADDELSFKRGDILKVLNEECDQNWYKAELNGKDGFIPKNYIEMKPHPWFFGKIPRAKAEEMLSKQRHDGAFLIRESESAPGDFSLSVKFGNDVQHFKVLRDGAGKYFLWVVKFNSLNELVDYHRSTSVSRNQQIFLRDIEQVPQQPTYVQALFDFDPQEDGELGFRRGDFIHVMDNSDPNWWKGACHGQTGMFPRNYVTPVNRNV

The compound `CC(C)=CCC[C@](C)(O)[C@H]1CC[C@]2(C)[C@@H]1[C@H](O)C[C@@H]1[C@@]3(C)CC[C@H](O[C@@H]4O[C@H](CO)[C@@H](O)[C@H](O)[C@H]4O[C@@H]4O[C@H](CO)[C@@H](O)[C@H](O)[C@H]4O)C(C)(C)[C@@H]3CC[C@]12C` [ginsenoside Rg3] had a Kd of 1.53 ± 0.11 µM.

Broadly, the Kd is a measure of binding affinity in units of concentration. The low end stands for higher affinity, the high end for lower affinity.
